The values that follow come from paper PMC11052071, “Novel JAK Inhibitors to Reduce Graft-Versus-Host Disease after Allogeneic Hematopoietic Cell Transplantation in a Preclinical Mouse Model” (Molecules, 2024).

One data set deals with GvHD. The data set is described as follows: Preclinical mouse model of allo-HCT (GvHD). Type of data set: in vivo, Balb/c recipient mice. From the text:
To determine the potential of WU4 and WU8 in preventing GvHD, we performed allo-HCT in which 5 × 10^6 T cell-depleted bone marrow (TCD-BM; CD45.1+) and 5 × 10^5 splenic pan T cells (CD45.2+) obtained from B6 mice were transplanted into lethally irradiated (900 cGy on day −1) Balb/c allogeneic recipient mice on day 0. […]. […] Among monocyte subsets, we only considered classical (LyG6^−CD11b^+Ly6C^high) and intermediate monocytes (LyG6^−CD11b^+Ly6C^middle) as APCs, excluding non-classical monocytes (LyG6^−CD11b^+Ly6C^low) due to their anti-inflammatory function, which downregulates antigen presentation during inflammation. […]
Figure 5 In vivo administration of WU4 and WU8 reduces GvHD by increasing % of Tregs while suppressing % of APCs and costimulatory proteins on APCs after allo-HCT. Allo-HCT was performed as follows: 5 × 10^6 TCD-BM (CD45.1+) and 5 × 10^5 splenic T cells (CD45.2+) obtained from B6 mice were transplanted on day 0 into lethally irradiated (900 cGy on day −1) Balb/c allogeneic recipient mice. TCD-BM-only group served as a no-GvHD control. […] (A,B) The mice were monitored for survival and GvHD signs. (C–F) Whole splenocytes were analyzed for % of Tregs, recipient/BM-derived APCs, and CD80-expressing APCs on day 6 after allo-HCT. LyG6^−CD11b^+Ly6C^high and LyG6^−CD11b^+Ly6C^middle served as classical and intermediate monocyte subsets. NT: neutrophils. * p < 0.05, ** p < 0.01, and *** p < 0.001. All error bars are represented as mean ± standard deviation.
Allo-HCT was performed as previously described. Briefly, BALB/c mice were used as recipients and received 9 Gy total body irradiation on day −1, then were transplanted with 5 × 10^6 T cell-depleted bone marrow (TCD-BM) cells from B6 (CD45.1+) mice along with 0.5 × 10^6 splenic T cells from B6 (CD45.2+) mice on day 0. Mouse TCD-BM and splenic T cells were prepared using an EasySep mouse CD90.2 positive selection kit II and an EasySep mouse T cell isolation kit ([…] Technologies, Cambridge, MA, USA), respectively.
GvHD clinical scores were assessed twice per week by a scoring system incorporating five clinical criteria: weight loss (diarrhea scored 1 regardless of weight change), posture (hunching), mobility, fur texture, and skin integrity, as previously described. Individual mice were scored from 0 to 2 for each criterion and were sacrificed with GvHD scores of 6 or above, following our approved animal protocol.
T cells from in vitro primary murine T cell culture, fresh peripheral blood, or whole splenocytes were analyzed according to cell surface and intracellular markers. Surface markers were directly stained with flow antibodies for 20 min at 4 °C. For intracellular staining (FOXP3 and T-bet), cells were fixed and permeabilized after surface staining using appropriate buffers (One-step intracellular nuclear protein staining protocol, eBioscience, San Diego, CA, USA) and stained with flow antibodies. The antibodies used for flow cytometric analyses for mouse cells were as follows: FOXP3, T-BET, and CD183 (eBioscience, San Diego, CA, USA); CD3, H2-Kb, H2-Kd, CD4, B220, CD11b, CD11c, Ly6C, and DEC205 (BioLegend, San Diego, CA); and CD8, CD45.2, CD80, and Ly6G (BD Pharmingen, San Jose, CA, USA). All cells were run on a ZE5 Cell Analyzer (BD Biosciences, Mountain View, CA, USA) or Attune® NxT (Thermofisher Scientific, Waltham, MA, USA) and analyzed with the FlowJo software, version 10.9.0 (FlowJo LLC., Ashland, OR, USA).

Another data set concerns the target TYK2 (Homo sapiens, UniProt P29597). The data set is described as follows: Z'-LYTE enzyme activity assay (SelectScreen Kinase Profiling), TYK2.
For data set [1] the following is noted: human; cited from earlier work.
The conditions of data set [2]: cited from earlier work; for terminal plasma half-life: human.
In another data set the test system is PKN1. As to conditions: murine and human whole-kinome analyses; cited from earlier work.
In the next data set the target is JAK2 (Homo sapiens, UniProt O60674). The data set is described as follows: Z'-LYTE enzyme activity assay (SelectScreen Kinase Profiling), JAK2.
Another data set addresses T1, JAK3 (Homo sapiens, UniProt P52333).
T1 sequence (P52333 1-1124): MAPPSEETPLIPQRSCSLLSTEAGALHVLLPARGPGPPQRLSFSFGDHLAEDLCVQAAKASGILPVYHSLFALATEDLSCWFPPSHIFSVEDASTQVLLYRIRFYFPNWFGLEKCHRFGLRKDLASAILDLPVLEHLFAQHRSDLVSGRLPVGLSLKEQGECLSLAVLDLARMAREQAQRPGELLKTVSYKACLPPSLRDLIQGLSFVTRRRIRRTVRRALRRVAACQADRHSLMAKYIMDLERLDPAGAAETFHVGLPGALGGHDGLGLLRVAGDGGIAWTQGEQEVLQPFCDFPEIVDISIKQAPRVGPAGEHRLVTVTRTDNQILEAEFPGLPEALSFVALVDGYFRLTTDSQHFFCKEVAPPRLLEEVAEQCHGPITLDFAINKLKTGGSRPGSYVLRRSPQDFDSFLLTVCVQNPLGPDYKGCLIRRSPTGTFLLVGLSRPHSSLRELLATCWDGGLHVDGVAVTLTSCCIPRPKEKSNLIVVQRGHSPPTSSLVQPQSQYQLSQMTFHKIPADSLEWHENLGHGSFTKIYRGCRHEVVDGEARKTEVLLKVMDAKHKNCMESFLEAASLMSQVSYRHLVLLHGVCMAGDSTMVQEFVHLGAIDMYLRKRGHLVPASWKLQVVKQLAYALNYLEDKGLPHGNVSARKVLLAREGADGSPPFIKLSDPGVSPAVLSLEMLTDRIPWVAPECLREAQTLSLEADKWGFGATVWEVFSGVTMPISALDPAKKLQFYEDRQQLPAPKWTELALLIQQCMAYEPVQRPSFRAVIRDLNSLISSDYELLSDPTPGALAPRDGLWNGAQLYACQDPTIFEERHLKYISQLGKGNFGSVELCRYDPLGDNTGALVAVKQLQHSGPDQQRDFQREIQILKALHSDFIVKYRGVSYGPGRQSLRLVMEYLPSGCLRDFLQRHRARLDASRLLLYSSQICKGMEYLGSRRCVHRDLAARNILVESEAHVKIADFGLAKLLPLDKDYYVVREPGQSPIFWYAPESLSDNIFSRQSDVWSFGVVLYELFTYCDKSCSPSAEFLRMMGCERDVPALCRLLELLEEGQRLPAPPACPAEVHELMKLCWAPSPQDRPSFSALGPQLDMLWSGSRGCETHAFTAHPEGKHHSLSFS
The data set is described as follows: Z'-LYTE enzyme activity assay (SelectScreen Kinase Profiling), JAK3.

In the next data set the target is JAK1 (Homo sapiens, UniProt P23458). In words: Z'-LYTE enzyme activity assay (SelectScreen Kinase Profiling), JAK1.
The nature of data set [3]: Mouse PK after subcutaneous injection. Type of data set: in vivo. The settings on record: 2 mg/kg s.c., CD-1 mice, time points up to 6 h; WU derivatives compared to BARI.
The nature of data set [4]: Human liver microsome (HLM) assay. Type of data set: in vitro ADME. The settings on record: incubations with human liver microsomes. As to the method: Subsequently, we assessed the in vitro metabolic stability and clearance values of WU derivatives in an HLM assay.
(A,B) Mouse PK following subcutaneous administration of WU derivatives (2 mg/kg) to CD-1 mice. […] All error bars are represented as mean ± standard deviation.
Mouse PK and in vitro human liver microsome (HLM) assay studies were conducted by Charles River Laboratories, Inc. (Wilmington, MA, USA). Briefly, male CD-1 mice were used in mouse PK studies. […] At 24 h, no drug levels were detected in plasma for any of the compounds tested. In addition, WU derivatives were evaluated in an in vitro HLM assay to determine the intrinsic human liver microsomal clearance values of compounds in incubations with human liver microsomes.

Setting [5] is: 4 mg/kg s.c. once daily for 3 weeks from day 3, vs vehicle control.
Where [6] appears, read: 20 mg/kg s.c. once daily for 3 weeks from day 3, vs vehicle control.
The mark [7] stands for this setting: dose not given, vs vehicle control.

SMILES strings stand for the structures. Like-named read-outs stand apart in the source and are kept apart here.

JAK2, sequence (O60674 whole entry): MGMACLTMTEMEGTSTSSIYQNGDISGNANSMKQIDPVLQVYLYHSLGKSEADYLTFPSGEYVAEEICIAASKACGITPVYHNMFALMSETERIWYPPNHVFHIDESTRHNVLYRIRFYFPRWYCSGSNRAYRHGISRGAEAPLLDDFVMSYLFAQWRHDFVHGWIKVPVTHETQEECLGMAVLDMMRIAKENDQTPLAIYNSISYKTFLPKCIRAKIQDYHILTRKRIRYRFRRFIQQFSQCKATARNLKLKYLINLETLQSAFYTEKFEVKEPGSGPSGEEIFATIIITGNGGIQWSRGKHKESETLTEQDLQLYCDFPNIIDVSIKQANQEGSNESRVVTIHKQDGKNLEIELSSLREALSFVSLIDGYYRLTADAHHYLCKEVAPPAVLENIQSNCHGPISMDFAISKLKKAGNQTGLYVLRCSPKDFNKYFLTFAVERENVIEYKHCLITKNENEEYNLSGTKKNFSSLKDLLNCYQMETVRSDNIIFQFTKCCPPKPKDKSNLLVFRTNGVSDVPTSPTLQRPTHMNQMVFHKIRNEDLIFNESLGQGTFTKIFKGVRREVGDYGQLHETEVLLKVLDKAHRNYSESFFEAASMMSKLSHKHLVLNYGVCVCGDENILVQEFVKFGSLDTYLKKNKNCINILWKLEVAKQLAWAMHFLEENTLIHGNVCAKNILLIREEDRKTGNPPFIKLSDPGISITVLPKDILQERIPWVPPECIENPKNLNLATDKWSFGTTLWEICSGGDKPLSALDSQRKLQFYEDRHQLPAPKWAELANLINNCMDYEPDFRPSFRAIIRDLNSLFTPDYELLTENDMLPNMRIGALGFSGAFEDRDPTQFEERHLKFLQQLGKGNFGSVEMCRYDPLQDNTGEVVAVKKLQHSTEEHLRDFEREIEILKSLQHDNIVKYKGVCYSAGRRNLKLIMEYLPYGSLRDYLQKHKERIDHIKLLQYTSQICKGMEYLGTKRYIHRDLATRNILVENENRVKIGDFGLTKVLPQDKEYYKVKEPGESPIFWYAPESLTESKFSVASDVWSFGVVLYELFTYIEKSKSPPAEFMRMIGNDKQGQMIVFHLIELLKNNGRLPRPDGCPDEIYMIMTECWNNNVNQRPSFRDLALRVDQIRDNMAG
TYK2, sequence (P29597 whole entry): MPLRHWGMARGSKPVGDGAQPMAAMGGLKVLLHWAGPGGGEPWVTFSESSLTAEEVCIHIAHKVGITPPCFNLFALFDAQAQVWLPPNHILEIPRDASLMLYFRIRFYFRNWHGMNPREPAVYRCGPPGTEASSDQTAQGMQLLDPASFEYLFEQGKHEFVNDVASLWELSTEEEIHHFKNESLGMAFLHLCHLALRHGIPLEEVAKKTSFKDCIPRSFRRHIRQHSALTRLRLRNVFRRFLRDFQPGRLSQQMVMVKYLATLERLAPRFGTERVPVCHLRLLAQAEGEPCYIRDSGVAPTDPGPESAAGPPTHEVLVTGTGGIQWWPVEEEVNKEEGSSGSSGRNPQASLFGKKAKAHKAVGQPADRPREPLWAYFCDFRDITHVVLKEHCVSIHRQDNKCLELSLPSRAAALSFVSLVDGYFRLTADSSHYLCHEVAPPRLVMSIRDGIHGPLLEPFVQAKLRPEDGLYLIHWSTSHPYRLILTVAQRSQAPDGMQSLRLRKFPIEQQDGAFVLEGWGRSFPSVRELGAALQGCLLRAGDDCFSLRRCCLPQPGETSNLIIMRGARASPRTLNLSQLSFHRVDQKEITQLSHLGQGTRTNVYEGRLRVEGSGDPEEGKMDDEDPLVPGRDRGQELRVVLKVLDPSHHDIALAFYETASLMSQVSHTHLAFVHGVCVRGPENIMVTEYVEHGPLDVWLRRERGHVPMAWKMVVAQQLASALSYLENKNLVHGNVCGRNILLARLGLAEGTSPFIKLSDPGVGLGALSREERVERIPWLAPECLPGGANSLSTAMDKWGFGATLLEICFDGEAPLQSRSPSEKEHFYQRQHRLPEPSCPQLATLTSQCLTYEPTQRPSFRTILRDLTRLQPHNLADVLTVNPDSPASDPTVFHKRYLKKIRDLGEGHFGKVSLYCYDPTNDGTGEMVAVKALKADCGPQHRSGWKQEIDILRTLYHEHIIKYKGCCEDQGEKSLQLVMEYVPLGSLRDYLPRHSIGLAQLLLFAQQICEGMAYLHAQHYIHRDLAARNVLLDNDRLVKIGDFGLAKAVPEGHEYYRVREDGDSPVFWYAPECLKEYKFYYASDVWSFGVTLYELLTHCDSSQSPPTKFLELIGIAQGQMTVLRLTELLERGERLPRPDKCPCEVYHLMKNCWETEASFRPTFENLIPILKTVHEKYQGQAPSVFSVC
JAK1, sequence (P23458 whole entry): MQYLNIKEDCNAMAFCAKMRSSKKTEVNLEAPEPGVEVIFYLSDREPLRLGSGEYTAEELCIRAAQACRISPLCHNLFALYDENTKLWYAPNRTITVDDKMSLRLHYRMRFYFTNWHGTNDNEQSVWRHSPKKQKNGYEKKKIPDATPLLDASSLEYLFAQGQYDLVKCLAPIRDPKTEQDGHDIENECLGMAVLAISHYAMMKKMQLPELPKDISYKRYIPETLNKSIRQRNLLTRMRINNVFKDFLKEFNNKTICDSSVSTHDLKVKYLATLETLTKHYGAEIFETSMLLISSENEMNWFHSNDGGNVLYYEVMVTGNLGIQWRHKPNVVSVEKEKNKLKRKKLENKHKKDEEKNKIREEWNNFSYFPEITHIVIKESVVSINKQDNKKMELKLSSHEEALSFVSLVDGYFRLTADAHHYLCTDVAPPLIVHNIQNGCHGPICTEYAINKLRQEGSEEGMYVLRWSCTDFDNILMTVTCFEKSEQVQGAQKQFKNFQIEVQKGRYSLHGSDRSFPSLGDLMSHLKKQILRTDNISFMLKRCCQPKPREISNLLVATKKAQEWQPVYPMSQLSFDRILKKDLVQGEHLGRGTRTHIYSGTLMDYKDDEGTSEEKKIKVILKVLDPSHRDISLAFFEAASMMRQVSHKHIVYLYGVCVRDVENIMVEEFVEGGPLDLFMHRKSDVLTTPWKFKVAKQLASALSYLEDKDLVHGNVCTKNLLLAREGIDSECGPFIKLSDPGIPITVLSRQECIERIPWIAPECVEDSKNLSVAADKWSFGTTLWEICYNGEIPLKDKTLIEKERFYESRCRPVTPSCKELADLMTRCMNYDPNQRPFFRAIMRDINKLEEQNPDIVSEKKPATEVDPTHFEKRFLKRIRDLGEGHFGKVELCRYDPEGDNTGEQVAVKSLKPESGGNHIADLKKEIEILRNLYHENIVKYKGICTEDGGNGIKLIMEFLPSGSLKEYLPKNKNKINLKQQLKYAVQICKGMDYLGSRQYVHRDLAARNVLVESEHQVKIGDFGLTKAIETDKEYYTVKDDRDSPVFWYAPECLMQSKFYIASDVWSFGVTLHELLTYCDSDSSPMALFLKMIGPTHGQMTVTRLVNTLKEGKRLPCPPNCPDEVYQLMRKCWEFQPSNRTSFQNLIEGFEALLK

With `CCS(=O)(=O)N1CC(CC#N)(n2cc(-c3ncnc4[nH]ccc34)cn2)C1` [BARI, baricitinib, reference compound], in the data set on GvHD (setting [5]), the “clinical GvHD scores” value was “less clinical GvHD scores” and the overall survival entry is reported as “significantly improved survival rate”. Further, in the data set on GvHD (setting [6]), the “clinical GvHD scores” value is given as “less clinical GvHD scores” and the overall survival entry was “significantly improved survival rate”. For the same compound, the IC50 against TYK2 (IC50 TYK2, ATP at 1 mM) is 42.3 nM. Inhibition at TYK2 (IC50 TYK2, ATP at app. Km) was half-maximal at 2.21 nM (IC50). Also, the plasma protein binding in data set [1] is reported as 50%. Moreover, in data set [2] (in vivo), the terminal plasma half-life is on record as ~ 8.5 h and the “metabolism (extent)” value is “very little metabolism”.

Regarding `N#CC[C@H](C1CCCC1)n1cc(-c2ncnc3[nH]ccc23)cn1` [RUX, Ruxolitinib], the “inhibition of off target PKN1” value in the data set on PKN1 is “not by RUX”. The plasma protein binding in [1] is 97%. In [2] (RUX mostly in the liver via CYP(3A4)), the “metabolism (extent)” value is over 99%. Besides, the terminal plasma half-life in data set [2] (in vivo) is reported as ~ 2 h.

With `CCS(=O)(=O)N1CC2(C1)CC(CC#N)(n1cc(-c3ncnc4[nH]ccc34)cn1)C2` [WU1], the IC50 against JAK2 (IC50 JAK2, ATP at app. Km) came out at 8.22 nM; on TYK2 (IC50 TYK2, ATP at app. Km) it was 29.4 nM; against JAK3 (IC50 JAK3, ATP at app. Km) it was 60.8 nM.

Consider `CCS(=O)(=O)N1CCC12CC(CC#N)(n1cc(-c3ncnc4[nH]ccc34)cn1)C2` (stereo not drawn) [WU2], for which the half-maximal inhibitory concentration (IC50) at JAK2 (IC50 JAK2, ATP at app. Km) was found to be 54.2 nM; on TYK2 (IC50 TYK2, ATP at app. Km) it was 574 nM; on JAK3 (IC50 JAK3, ATP at app. Km), 418 nM.

For `CCS(=O)(=O)N1CC2(CCC2(CC#N)n2cc(-c3ncnc4[nH]ccc34)cn2)C1` (stereo not drawn) [WU3], the IC50 at JAK2 (IC50 JAK2, ATP at app. Km) is 35.1 nM; on TYK2 (IC50 TYK2, ATP at app. Km), 578 nM; against JAK3 (IC50 JAK3, ATP at app. Km), 36.2 nM.

Turning to `CC(C)(C)NS(=O)(=O)NC1CC2(C1)CC(CC#N)(n1cc(-c3ncnc4[nH]ccc34)cn1)C2` (stereo not drawn) [WU5], the “% of donor BM-derived B and T cells in the peripheral blood” value with GvHD (dose not given, day 27 after allo-HCT, vs vehicle control) is “increased the % of donor BM-derived B and T cells”. For the same compound, the “clinical GvHD scores” value with GvHD (setting [7]) is “less clinical GvHD scores”. In addition, in the data set on GvHD (setting [7]), the overall survival entry is given as “significantly improved overall survival”. Besides, the IC50 was 9.88 nM at JAK2 (IC50 JAK2, ATP at 1 mM); 0.45 nM against JAK2 (IC50 JAK2, ATP at app. Km); 58.9 nM at TYK2 (IC50 TYK2, ATP at 1 mM); 3.11 nM at TYK2 (IC50 TYK2, ATP at app. Km); 623 nM against JAK3 (IC50 JAK3, ATP at 1 mM); 11.2 nM against JAK3 (IC50 JAK3, ATP at app. Km). Further, the IC50 stood at 8.2 nM against JAK1 (IC50 JAK1, ATP at 1 mM) and 1.47 nM at JAK1 (IC50 JAK1, ATP at app. Km).

On to `CCS(=O)(=O)N1CCC2(CC1)CCC(CC#N)(n1cc(-c3ncnc4[nH]ccc34)cn1)CC2` [WU7], for which the “plasma drug concentration (mouse PK)” value in [3] is listed as “significant reduction in plasma concentration at 2 h after injection”. In addition, the IC50 turned out to be 13.8 nM on JAK2 (IC50 JAK2, ATP at 1 mM); 0.867 nM at JAK2 (IC50 JAK2, ATP at app. Km); 275 nM at TYK2 (IC50 TYK2, ATP at 1 mM); 12.1 nM against TYK2 (IC50 TYK2, ATP at app. Km); 423 nM against JAK3 (IC50 JAK3, ATP at 1 mM); 12.3 nM against JAK3 (IC50 JAK3, ATP at app. Km). Further, the “in vitro metabolic stability in HLM” value in data set [4] is given as “diminished HLM metabolic stability”.

Regarding `N#CCC1(n2cc(-c3ncnc4[nH]ccc34)cn2)CS(=O)(=O)C1` [WU9], the IC50 against JAK2 (IC50 JAK2, ATP at 1 mM) was 9.67 nM; against JAK2 (IC50 JAK2, ATP at app. Km) it was 0.406 nM; at TYK2 (IC50 TYK2, ATP at 1 mM), 34.7 nM; against TYK2 (IC50 TYK2, ATP at app. Km), 2.24 nM; on JAK3 (IC50 JAK3, ATP at 1 mM), 501 nM; at JAK3 (IC50 JAK3, ATP at app. Km) it was 10.4 nM.

For `CS(=O)(=O)C1CC(CC#N)(n2cc(-c3ncnc4[nH]ccc34)cn2)C1` (stereo not drawn) [WU10], the “% of Tregs in the spleens” value in the data set with GvHD (dose not given, day 6 after allo-HCT, vs vehicle control) was “significantly increased the % of Tregs”. Moreover, the “clinical GvHD scores” value in the data set on GvHD (setting [7]) is given as “reduced GvHD”. Besides, the overall survival result with GvHD (setting [7]) is given as “trend towards increased overall survival”. Further, in the data set on GvHD (dose not given, whole blood, day 27 after allo-HCT), the “blood cell recovery (lymphocytes and white blood cells)” value is “trend towards improvement in blood cell recovery”. Also, the IC50 is 6.11 nM at JAK2 (IC50 JAK2, ATP at 1 mM); 0.37 nM at JAK2 (IC50 JAK2, ATP at app. Km); 108 nM at TYK2 (IC50 TYK2, ATP at 1 mM); 4.56 nM against TYK2 (IC50 TYK2, ATP at app. Km); 496 nM against JAK3 (IC50 JAK3, ATP at 1 mM); 13 nM at JAK3 (IC50 JAK3, ATP at app. Km).
